Test results as given in US9073876B2, “Flap modulators” (JANSSEN PHARMACEUTICA NV, priority 2013, dated 2015).
Structures can show the parent of a compound that is named as a salt.

Columns and labels:
human FLAP = human FLAP (Homo sapiens (Human), UniProt P20292); assay: FLAP binding assay (HTRF); settings: human FLAP-containing membranes, HTRF format; average of two assay plates, duplicates; read-out: FLAP Binding wild type HTRF Ki
Outline: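 Averaged over two plates (duplicate wells per plate); output given as HTRF ratio.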

[1] = system: leukotriene pathway in human whole blood (LTB4 levels); assay: Human whole blood assay (LTB4); format: cell-based; settings: human whole blood diluted 1:1 in RPMI, stimulated with calcium ionophore A23187; single replicate
Outline: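 Blood (heparin) diluted 1:1 RPMI; compound pre-incubation 15 min, 37° Celsius; A23187 7 μg/mL, 30 min, 37° Celsius; plasma LTB4 by commercial kit. IC50 via 4-parameter equation.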

Chain of human FLAP (P20292 whole entry): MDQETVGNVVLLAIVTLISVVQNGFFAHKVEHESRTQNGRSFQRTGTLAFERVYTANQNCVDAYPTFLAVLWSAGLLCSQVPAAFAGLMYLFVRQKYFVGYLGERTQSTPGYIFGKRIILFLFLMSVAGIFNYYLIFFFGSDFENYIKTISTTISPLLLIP

SMILES	Ki (human FLAP)	IC50 [1]
Nc1cnc(-c2ccc(C3CCC3)c(Oc3cccc(C(F)(F)F)n3)c2F)cn1 [Example 102, 5-(4-Cyclobutyl-2-fluoro-3-{[6-(trifluoromethyl)pyridin-2-yl]oxy}phenyl)pyrazin-2-amine]	2 nM	103 nM
CNS(=O)(=O)c1ccc(COc2c(C3CCC3)ccc(-c3cnc(N)cn3)c2F)cc1 [Example 27, 4-{[3-(5-Aminopyrazin-2-yl)-6-cyclobutyl-2-fluorophenoxy]methyl}-N-methylbenzenesulfonamide]	6 nM	805 nM
Nc1cnc(-c2ccc(C3CCC3)c(Oc3ccnc(C(F)(F)F)n3)c2F)cn1 [Example 124, 5-(4-Cyclobutyl-2-fluoro-3-{[2-(trifluoromethyl)pyrimidin-4-yl]oxy}phenyl)pyrazin-2-amine]	3 nM	119 nM
NC(=O)c1cccc(COc2c(C3CCC3)ccc(-c3cnc(N)cn3)c2F)c1 [Example 17, 3-{[3-(5-Aminopyrazin-2-yl)-6-cyclobutyl-2-fluorophenoxy]methyl}benzamide]	16 nM	276 nM
Nc1cnc(-c2ccc(C3CCC3)c(OCc3cccc(C(F)(F)F)c3)c2F)cn1 [Example 2, 5-(4-Cyclobutyl-2-fluoro-3-{[3-(trifluoromethyl)benzyl]oxy}phenyl)-pyrazin-2-amine]	158 nM	526 nM
COc1c(C2CCC2)ccc(-c2cnc(N)cn2)c1F [A, 5-(4-Cyclobutyl-2-fluoro-3-methoxyphenyl)pyrazin-2-amine]	64 nM	531 nM
Nc1cnc(-c2ccc(C3CCC3)c(OCc3ccc(-c4nnn[nH]4)cc3)c2F)cn1 [Example 20, 5-(4-Cyclobutyl-2-fluoro-3-{[4-(1H-tetrazol-5-yl)benzyl]oxy}phenyl)pyrazin-2-amine]	5 nM	> 10000 nM
CSc1ccnc(Oc2c(C3CCC3)ccc(-c3cnc(N)cn3)c2F)n1 [Example 88, 5-(4-Cyclobutyl-2-fluoro-3-{[4-(methylsulfanyl)pyrimidin-2-yl]oxy}phenyl)pyrazin-2-amine]	4 nM	36.1 nM
Nc1cnc(-c2ccc(C3CCC3)c(OCc3cccc(C(=O)O)c3)c2F)cn1 [Example 4, 3-{[3-(5-Aminopyrazin-2-yl)-6-cyclobutyl-2-fluorophenoxy]methyl}benzoic acid]	4 nM	298 nM
Nc1cnc(-c2ccc(C3CCC3)c(OCc3ccc(CC(=O)O)cc3)c2F)cn1 [Example 23, (4-{[3-(5-Aminopyrazin-2-yl)-6-cyclobutyl-2-fluorophenoxy]methyl}phenyl)acetic acid]	2 nM	363 nM
Nc1cnc(-c2ccc(C3CCC3)c(OCCc3ccc(C(=O)O)cc3)c2F)cn1 [Example 84, 4-{2-[3-(5-Aminopyrazin-2-yl)-6-cyclobutyl-2-fluorophenoxy]ethyl}benzoic acid]	70 nM	886 nM
Nc1cnc(-c2ccc(C3CCC3)c(OCc3ccccc3Cl)c2F)cn1 [Example 34, 5-{3-[(2-Chlorobenzyl)oxy]-4-cyclobutyl-2-fluorophenyl}pyrazin-2-amine]	304 nM	1570 nM
Nc1cnc(-c2ccc(C3CCC3)c(Oc3cc(O)ncn3)c2F)cn1 [Example 98, 6-[3-(5-Aminopyrazin-2-yl)-6-cyclobutyl-2-fluorophenoxy]pyrimidin-4-ol]	8 nM	175 nM
N#Cc1ccccc1COc1c(C2CCC2)ccc(-c2cnc(N)cn2)c1F [Example 18, 2-{[3-(5-Aminopyrazin-2-yl)-6-cyclobutyl-2-fluorophenoxy]methyl}benzonitrile]	120 nM	1170 nM
COc1cc(Oc2c(C3CCC3)ccc(-c3cnc(N)cn3)c2F)ncn1 [Example 97, 5-{4-Cyclobutyl-2-fluoro-3-[(6-methoxypyrimidin-4-yl)oxy]phenyl}pyrazin-2-amine]	32 nM	153 nM

Other lines, results leading:

Ki (human FLAP)	IC50 [1]	SMILES
5.6 nM	67.9 nM	Nc1cnc(-c2ccc(C3CCC3)c(Oc3nccc(C(F)(F)F)n3)c2F)cn1 [Example 131, 5-(4-Cyclobutyl-2-fluoro-3-{[4-(trifluoromethyl)pyrimidin-2-yl]oxy}phenyl)pyrazin-2-amine]
119 nM	281 nM	COc1cccnc1Oc1c(C2CCC2)ccc(-c2cnc(N)cn2)c1F [Example 129, 5-{4-Cyclobutyl-2-fluoro-3-[(3-methoxypyridin-2-yl)oxy]phenyl}pyrazin-2-amine]
39.9 nM	506 nM	N#Cc1ccc(COc2c(C3CCC3)ccc(-c3cnc(N)cn3)c2F)cn1 [Example 290, 5-{[3-(5-Aminopyrazin-2-yl)-6-cyclobutyl-2-fluorophenoxy]methyl}pyridine-2-carbonitrile trifluoroacetic acid salt]
12.5 nM	> 10000 nM	Nc1cnc(-c2ccc(C3CCC3)c(Oc3ccc(C(=O)O)cn3)c2F)cn1 [Example 154, 6-[3-(5-Aminopyrazin-2-yl)-6-cyclobutyl-2-fluorophenoxy]pyridine-3-carboxylic acid]
261 nM	10000 nM	CC(C)(C)OC(=O)N1CCCC1COc1c(C2CCC2)ccc(-c2cnc(N)cn2)c1F (stereo not drawn) [Example 248, tert-butyl 2-((3-(5-aminopyrazin-2-yl)-6-cyclobutyl-2-fluorophenoxy)methyl)pyrrolidine-1-carboxylate]
3.9 nM	48.5 nM	CN(C)c1cc(Oc2c(C3CCC3)ccc(-c3cnc(N)cn3)c2F)nc(C(F)(F)F)n1 [Example 139, 6-[3-(5-Aminopyrazin-2-yl)-6-cyclobutyl-2-fluorophenoxy]-N,N-dimethyl-2-(trifluoromethyl)pyrimidin-4-amine]
31.1 nM	332 nM	Nc1cnc(-c2ccc(C3CCC3)c(Oc3ccnnc3)c2F)cn1 [Example 257, 5-(4-Cyclobutyl-2-fluoro-3-(pyridazin-4-yloxy)phenyl)pyrazin-2-amine]
7.8 nM	35.9 nM	Nc1cnc(Oc2c(C3CCC3)ccc(-c3cnc(N)cn3)c2F)nc1 [Example 158, 2-[3-(5-Aminopyrazin-2-yl)-6-cyclobutyl-2-fluorophenoxy]pyrimidin-5-amine]
198 nM	464 nM	CCc1ccc(-c2cnc(N)cn2)c(F)c1Oc1nccc(N)n1 [Example 317, 2-[3-(5-Aminopyrazin-2-yl)-6-ethyl-2-fluorophenoxy]pyrimidin-4-amine]
5.5 nM	70.3 nM	Nc1cnc(-c2ccc(C3CCC3)c(Oc3cc(N4CCC4)ncn3)c2F)cn1 [Example 138, 5-{3-[(6-Azetidin-1-ylpyrimidin-4-yl)oxy]-4-cyclobutyl-2-fluorophenyl}pyrazin-2-amine trifluoroacetate salt]
1.3 nM	11.7 nM	Cc1nc(N)cc(Oc2c(C3CCC3)ccc(-c3cnc(N)cn3)c2F)n1 [Example 140, 6-[3-(5-Aminopyrazin-2-yl)-6-cyclobutyl-2-fluorophenoxy]-2-methylpyrimidin-4-amine trifluoroacetate salt]
8.6 nM	1100 nM	CS(=O)(=O)c1cccc(COc2c(C3CCC3)ccc(-c3cnc4c(c3)OCCN4)c2F)c1 [Example 188, 7-(4-Cyclobutyl-2-fluoro-3-{[3-(methylsulfonyl)-benzyl]oxy}phenyl)-3,4-dihydro-2H-pyrido[3,2-b][1,4]oxazine]
40.2 nM	150 nM	COc1c(C(C)(C)C)ccc(-c2cnc(N)cn2)c1F [Example 205, 5-(4-tert-Butyl-2-fluoro-3-methoxyphenyl)pyrazin-2-amine]
4.1 nM	871 nM	O=C(O)c1ccc(COc2c(C3CCC3)ccc(-c3cnc4c(c3)OCCN4)c2F)cc1 [Example 196, 4-{[6-Cyclobutyl-3-(3,4-dihydro-2H-pyrido[3,2-b][1,4]oxazin-7-yl)-2-fluorophenoxy]methyl}benzoic acid]
3.6 nM	30 nM	CC(C)Cc1cc(Oc2c(C3CCC3)ccc(-c3cnc(N)cn3)c2F)nc(N)n1 [Example 242, 4-(3-(5-aminopyrazin-2-yl)-6-cyclobutyl-2-fluorophenoxy)-6-isobutylpyrimidin-2-amine]
10.2 nM	79.6 nM	CS(=O)(=O)c1ccc(Oc2c(C3CCC3)ccc(-c3cnc(N)cn3)c2F)cc1C(F)(F)F [Example 133, 5-{4-Cyclobutyl-2-fluoro-3-[4-(methylsulfonyl)-3-(trifluoro-methyl)phenoxy]phenyl}pyrazin-2-amine]
100 nM	216 nM	Nc1cnc(-c2ccc(C3CC3)c(Oc3ncccn3)c2F)cn1 [Example 278, 5-[4-Cyclopropyl-2-fluoro-3-(pyrimidin-2-yloxy)phenyl]pyrazin-2-amine]
1300 nM	> 10000 nM	N#Cc1nccc(Oc2c(C3CCC3)ccc(-c3cnc(N)cn3)c2F)n1 [Example 234, 4-(3-(5-Aminopyrazin-2-yl)-6-cyclobutyl-2-fluorophenoxy)pyrimidine-2-carbonitrile]
6.2 nM	39.7 nM	Cc1nccc(Oc2c(C3CCC3)ccc(-c3cnc(N)cn3)c2F)n1 [Example 134, 5-{4-Cyclobutyl-2-fluoro-3-[(2-methylpyrimidin-4-yl)oxy]phenyl}pyrazin-2-amine]
6.9 nM	30.8 nM	CC(C)(C)c1ccc(-c2cnc(N)cn2)c(F)c1Oc1nccc(N)n1 [Example 203, 2-[3-(5-Aminopyrazin-2-yl)-6-tert-butyl-2-fluorophenoxy]pyrimidin-4-amine]
29.4 nM	> 10000 nM	Nc1cnc(-c2ccc(C3CCC3)c(OCc3nc(C(=O)O)co3)c2F)cn1 [Example 282, 2-{[3-(5-Aminopyrazin-2-yl)-6-cyclobutyl-2-fluorophenoxy]methyl}-1,3-oxazole-4-carboxylic acid trifluoroacetic acid salt]
